Laboratory results taken from article PMC11266677, “Vitamin B5 metabolism is essential for vacuolar and mitochondrial functions and drug detoxification in fungi” (Communications Biology, 2024).

Tests used:
[1] = molecular target: T1, Acs1 (acetyl CoA synthetase) (Saccharomyces cerevisiae, UniProt Q01574); assay: hydroxylamine-coupled acetyl CoA synthetase assay (acethydroxamic acid, OD540); assay type: biochemical
T1 construct: purified S. cerevisiae acetyl CoA synthetase (Sigma, A1765)

[2] = molecular target: T1, Acs1 (acetyl CoA synthetase); assay: hydroxylamine-coupled acetyl CoA synthetase assay; […] inhibition at […]; assay type: biochemical

T1 sequence (Q01574 whole entry): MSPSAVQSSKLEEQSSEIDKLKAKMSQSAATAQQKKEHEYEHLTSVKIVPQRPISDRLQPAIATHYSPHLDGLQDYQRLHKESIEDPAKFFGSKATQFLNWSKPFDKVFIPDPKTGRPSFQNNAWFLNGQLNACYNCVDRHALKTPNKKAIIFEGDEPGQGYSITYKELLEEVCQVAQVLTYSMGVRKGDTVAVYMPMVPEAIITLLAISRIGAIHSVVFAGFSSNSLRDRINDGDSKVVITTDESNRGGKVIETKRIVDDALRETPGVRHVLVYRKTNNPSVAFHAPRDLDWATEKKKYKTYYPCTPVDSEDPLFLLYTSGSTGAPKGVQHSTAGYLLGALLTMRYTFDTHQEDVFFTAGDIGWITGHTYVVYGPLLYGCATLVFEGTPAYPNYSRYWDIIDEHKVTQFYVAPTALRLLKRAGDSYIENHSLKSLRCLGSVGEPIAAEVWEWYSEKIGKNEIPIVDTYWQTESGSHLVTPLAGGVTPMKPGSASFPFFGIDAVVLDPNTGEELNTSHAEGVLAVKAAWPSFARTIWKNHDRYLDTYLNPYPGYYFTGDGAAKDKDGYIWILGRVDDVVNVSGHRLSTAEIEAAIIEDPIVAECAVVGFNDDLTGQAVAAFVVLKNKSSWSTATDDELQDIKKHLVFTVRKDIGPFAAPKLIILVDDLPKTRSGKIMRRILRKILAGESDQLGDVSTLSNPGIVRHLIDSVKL

| SMILES | IC50 [1] | inhibition at 18.8 µM [2] |
| --- | --- | --- |
| NCC(=O)Nc1ccc(-n2nc(C(F)(F)F)cc2-c2ccc3c(ccc4ccccc43)c2)cc1 [AR-12] | ~18 µM |  |
| CC(C)c1ccc(CC(=O)N2CCN(c3ccc(C#N)nn3)CC2)cc1 [PZ-2891] |  | 32.7% |
